pEC50, pIC50: −log10 of the molar value.
Assays:
[1] = tested on: NQO1 specific enzyme activity in BEAS-2B cells (marker for NRF2 activation); test: BEAS-2B NQO1 MTT Assay; type: cell-based; conditions: Homo sapiens, compound incubated 48 hours, read-out: EC50 (NQO1 specific enzyme activity induction)
Outline: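 BEAS-2B cells treated with compound for 48 h at 37 °C, then lysed; NQO1 activity in lysates measured kinetically by MTT reduction at A570 over 30 min. pEC50 from 3-parameter fit of ΔOD/min versus log concentration; lysate also taken for Cell Titer Glo.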

[2] = molecular target: T1, full length Keap1 protein / full length NRF2 protein (Homo sapiens, UniProt Q14145); test: NRF2-Keap1 TR-FRET Low Protein Assay; type: binding; conditions: 1.25 nM Keap1 FlagHis and 2.5 nM biotin-NRF2 added
T1 construct: full length NRF2 protein and full length Keap1 protein (Keap1 exists a dimer) are used; His
Outline: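 Flag-tagged full-length Keap1 was preincubated with compound (3-fold series) for 2.25 h at 37 °C in Tris pH 8.0/MgCl2/NaCl/BSA/DTT/CHAPS. Biotin-Avi-NRF2 (added at 2.5 nM) was then bound for 1.25 h at 4 °C. Eu-streptavidin/anti-Flag-APC TR-FRET (665/615 nm) was read after 1 h at RT, and pIC50 came from a four-parameter fit.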

T1 sequence (Q14145 whole entry): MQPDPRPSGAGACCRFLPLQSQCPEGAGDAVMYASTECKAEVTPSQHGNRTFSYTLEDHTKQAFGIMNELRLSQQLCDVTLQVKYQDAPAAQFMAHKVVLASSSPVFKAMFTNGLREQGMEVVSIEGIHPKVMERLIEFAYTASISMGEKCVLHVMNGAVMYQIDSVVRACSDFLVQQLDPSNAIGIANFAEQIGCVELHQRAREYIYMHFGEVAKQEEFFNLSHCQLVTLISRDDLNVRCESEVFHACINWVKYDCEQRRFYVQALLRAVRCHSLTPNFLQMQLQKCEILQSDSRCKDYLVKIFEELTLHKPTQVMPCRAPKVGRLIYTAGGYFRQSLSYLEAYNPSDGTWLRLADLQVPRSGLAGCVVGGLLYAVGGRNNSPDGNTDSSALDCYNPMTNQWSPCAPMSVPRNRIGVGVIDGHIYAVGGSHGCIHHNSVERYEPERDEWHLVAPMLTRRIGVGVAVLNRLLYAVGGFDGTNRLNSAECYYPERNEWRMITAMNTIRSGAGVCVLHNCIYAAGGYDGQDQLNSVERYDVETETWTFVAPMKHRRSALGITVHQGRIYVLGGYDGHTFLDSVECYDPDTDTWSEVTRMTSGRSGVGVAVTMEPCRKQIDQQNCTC

pIC50 [2] | SMILES | pEC50 [1]
7.00 to 8.00 | CC1CC(C)CN(C(=O)c2cccc(-c3cccc(-n4ncc(C(=O)O)c4C4CC4)c3)c2F)C1 (centres unmarked) [Example 53, 5-Cyclopropyl-1-[3′-(3,5-dimethyl-piperidine-1-carbonyl)-2′-fluoro-biphenyl-3-yl]-1H-pyrazole-4-carboxylic Acid] | 6.00 to 7.00
7.00 to 8.00 | CC1(C)CCc2cnn(-c3cccc(-c4cccc(-n5ncc(C(=O)O)c5C5CC5)c4)c3)c21 [Example 63, 5-Cyclopropyl-1-(3′-(6,6-dimethyl-5,6-dihydrocyclopenta[c]pyrazol-1(4H)-yl)-[1,1′-biphenyl]-3-yl)-1H-pyrazole-4-carboxylic Acid] | 6.00 to 7.00
7.00 to 8.00 | CC1CCCN(C(=O)c2cccc(-c3cccc(-n4ncc(C(=O)O)c4C4CC4)c3)c2F)CC1 (centres unmarked) [Example 29, 5-Cyclopropyl-1-{3-[2-fluoro-3-(4-methylazepane-1-carbonyl)phenyl]phenyl}-1H-pyrazole-4-carboxylic Acid] | 6.00 to 7.00
> 8.00 | COCC1CCCCN1C(=O)c1cccc(-c2cccc(-n3ncc(C(=O)O)c3C3C[C@H]3c3cn(C)nn3)c2)c1F (mixture of isomers) [Example 264, 1-(3′-(2-(Methoxymethyl)piperidine-1-carbonyl)-2′-fluoro-[1,1′-biphenyl]-3-yl)-5-(trans-2-(1-methyl-1H-1,2,3-triazol-4-yl)cyclopropyl)-1H-pyrazole-4-carboxylic Acid] | 6.00 to 7.00
> 8.00 | C[C@@H]1CCC[C@H](C)N1C(=O)c1cccc(-c2cccc(-n3ncc(C(=O)O)c3[C@H]3C[C@@H]3c3cn(C)nn3)c2)c1F (single isomer, unassigned) [Example 261] | 7.00 to 8.00
7.00 to 8.00 | CCC[C@@H]1CO[C@@H](C)CN1C(=O)c1cccc(-c2cccc(-n3ncc(C(=O)O)c3C3CC3)c2)c1F [Example 45, 5-cyclopropyl-1-(3-{2-fluoro-3-[(2S,5R)-2-methyl-5-propylmorpholine-4-carbonyl]phenyl}phenyl)-1H-pyrazole-4-carboxylic Acid] | 6.00 to 7.00

SMILES | pIC50 [2] | pEC50 [1]
O=C(O)c1cnn(-c2cccc(-c3cccc(C(=O)N4C5CCCC4CCC5)c3F)c2)c1C1CC1 [Example 34, 1-[3-(3-{9-azabicyclo[3.3.1]nonane-9-carbonyl}-2-fluorophenyl)phenyl]-5-cyclopropyl-1H-pyrazole-4-carboxylic Acid] | 7.00 to 8.00 | 6.00 to 7.00
